# Reference: ChEMBL document CHEMBL1649380, “Prediction of drug intestinal absorption by new linear and non-linear QSPR” (Eur J Med Chem, 2011)
# Experiment: Drug absorption in human assessed as human intestinal absorption rate
# Format: ADME, tissue-based, Intestine
row,SMILES,log10(%HIA +10)
1,CC(C)(C)NCC(O)COc1cccc2c1CC(O)C(O)C2 (stereo not given) [NADOLOL],1.613
2,CC[C@H](C)C(=O)O[C@H]1C[C@H](O)C=C2C=C[C@H](C)[C@H](CC[C@@H](O)C[C@@H](O)CC(=O)O)[C@H]21 [PRAVASTATIN],1.643
3,CCCc1c2oc(C(=O)O)cc(=O)c2cc2c(=O)cc(C(=O)O)n(CC)c12 [NEDOCROMIL],1.114
4,CO[C@H]1C[C@H](O[C@H]2CC[C@]3(C=O)[C@H]4CC[C@]5(C)[C@@H](C6=CC(=O)OC6)CC[C@]5(O)[C@@H]4CC[C@]3(O)C2)O[C@H](C)[C@H]1O [CYMARIN],1.756
5,CC(C(=O)O)c1cccc(C(=O)c2ccccc2)c1 (stereo not given) [KETOPROFEN],2.009
6,CN(C)CCc1c[nH]c2ccc(CS(=O)(=O)N3CCCC3)cc12 [ALMOTRIPTAN],1.929
7,OCCN(CCO)c1nc(N2CCCCC2)c2nc(N(CCO)CCO)nc(N3CCCCC3)c2n1 [DIPYRIDAMOLE],1.833
8,NC(=O)OCC(COC(N)=O)c1ccccc1 [FELBAMATE],2
9,COc1ccc2c(c1)c(CC(=O)O)c(C)n2C(=O)c1ccc(Cl)cc1 [INDOMETHACIN],2.041
10,N#C[C@H](O[C@@H]1O[C@H](CO[C@@H]2O[C@H](CO)[C@@H](O)[C@H](O)[C@H]2O)[C@@H](O)[C@H](O)[C@H]1O)c1ccccc1 [AMYGDALIN],1.176
11,CCOC(=O)Nc1ccc2c(c1)N(C(=O)CCN1CCOCC1)c1ccccc1S2 [MORICIZINE],1.991
12,CC1(C)S[C@@H]2[C@H](NC(=O)[C@H](NC(=O)N3CCN(S(C)(=O)=O)C3=O)c3ccccc3)C(=O)N2[C@H]1C(=O)O [MEZLOCILLIN],1
13,CN(C)CCCOc1nn(Cc2ccccc2)c2ccccc12 [BENZYDAMINE],1.987
14,OC[C@H]1O[C@H](OC[C@H]2O[C@H](O[C@]3(CO)O[C@H](CO)[C@@H](O)[C@@H]3O)[C@H](O)[C@@H](O)[C@@H]2O)[C@H](O)[C@@H](O)[C@H]1O [RAFFINOSE],1.013
15,CC1(C)S[C@@H]2[C@H](NC(=O)[C@H](C(=O)O)c3ccsc3)C(=O)N2[C@H]1C(=O)O [TICARCILLIN],1.176
16,CC[C@H]1OC(=O)[C@H](C)[C@@H](O[C@H]2C[C@@](C)(OC)[C@@H](O)[C@H](C)O2)[C@H](C)[C@@H](O[C@@H]2O[C@H](C)C[C@H](N(C)C)[C@H]2O)[C@](C)(O)C[C@@H](C)CN(C)[C@H](C)[C@@H](O)[C@]1(C)O [AZITHROMYCIN],1.663
17,OCCOCCN1CCN(C2=Nc3ccccc3Sc3ccccc32)CC1 [QUETIAPINE],1.919
18,N=C(N)NCC1COc2ccccc2O1 (stereo not given) [GUANOXAN],1.778
19,CC(C)(C)NCC(O)c1ccc(O)c(CO)n1 (stereo not given) [PIRBUTEROL],1.845
20,CC(C)NCC(O)c1cc(O)cc(O)c1 (stereo not given) [METAPROTERENOL],1.732
21,CC(=O)CC(c1ccccc1)c1c(O)c2ccccc2oc1=O (stereo not given) [WARFARIN],2.033
22,CCN1CCCC1CNC(=O)c1cc(S(=O)(=O)CC)ccc1OC (stereo not given) [SULTOPRIDE],1.996
23,C[C@@H](O)[C@H]1C(=O)N2C(C(=O)O)=C(S[C@@H]3CN[C@H](C(=O)N(C)C)C3)[C@H](C)[C@H]12 [MEROPENEM],1
24,C=CCc1ccccc1OCC(O)CNC(C)C (stereo not given) [ALPRENOLOL],2.016
25,CN(C)[C@@H]1C(O)=C(C(N)=O)C(=O)[C@@]2(O)C(O)=C3C(=O)c4c(O)cccc4[C@@](C)(O)[C@H]3[C@H](O)[C@@H]12 [OXYTETRACYCLINE],1.833
26,CN(C)C(=N)N=C(N)N [METFORMIN],1.799
27,C=CCNc1nc(NCC=C)nc(N2CCN(C(c3ccc(F)cc3)c3ccc(F)cc3)CC2)n1 [ALMITRINE],2
28,O=C1Cc2cc(CCN3CCN(c4nsc5ccccc45)CC3)c(Cl)cc2N1 [ZIPRASIDONE],1.845

row,SMILES,log10(%HIA +10)
1,CO/N=C(\C(=O)N[C@@H]1C(=O)N2C(C(=O)O)=C(CSc3nc(=O)c(=O)[nH]n3C)CS[C@H]12)c1csc(N)n1 [CEFTRIAXONE],1.041
2,CC(=O)Oc1ccccc1C(=O)O [ASPIRIN],2.041
3,CO/N=C(\C(=O)N[C@@H]1C(=O)N2C(C(=O)O)=C(CSc3nc(C)c(CC(=O)O)s3)CS[C@H]12)c1csc(N)n1 [CEFODIZIME],1
4,O=C(O)c1ccccc1C(=O)Nc1ccc(S(=O)(=O)Nc2nccs2)cc1 [PHTHALYLSULFATHIAZOLE],1.176
5,N=C(N)NC(=O)c1nc(Cl)c(N)nc1N [AMILORIDE],1.778
6,CC(C)C[C@H]1C(=O)N2CCC[C@H]2[C@]2(O)O[C@](NC(=O)[C@@H]3C=C4c5cccc6[nH]c(Br)c(c56)C[C@H]4N(C)C3)(C(C)C)C(=O)N12 [BROMOCRIPTINE],1.58
7,Nc1ccn(C[C@@H](CO)OCP(=O)(O)O)c(=O)n1.O.O [CIDOFOVIR],1.114
8,COc1cccc(C(=O)CCN[C@@H](C)[C@H](O)c2ccccc2)c1 [OXYFEDRINE],1.978
9,CN1CCN2c3ccccc3Cc3ccccc3C2C1 (stereo not given) [MIANSERIN],1.903
10,CC(C)(C)NCC(O)c1cc(O)cc(O)c1 (stereo not given) [TERBUTALINE],1.857
11,COc1ccc2c3c1O[C@H]1C(=O)CC[C@@]4(O)[C@@H](C2)N(C)CC[C@]314 [OXYCODONE],1.845
12,CC(C)NCC(O)COc1ccc(CCOCC2CC2)cc1 (stereo not given) [BETAXOLOL],2
13,Cc1cc(=O)n(-c2ccccc2)n1C [ANTIPYRINE],2.041
14,Oc1ccc(C(O)C2CCCCN2)cc1O (stereo not given) [RIMITEROL],1.763
15,CC(=O)NCCCS(=O)(=O)O [ACAMPROSATE],1.322
16,C[C@@H]1O[C@@H](O[C@H]2C[C@@H](O)[C@]3(CO)[C@H]4[C@H](O)C[C@]5(C)[C@@H](C6=CC(=O)OC6)CC[C@]5(O)[C@@H]4CC[C@]3(O)C2)[C@H](O)[C@H](O)[C@H]1O [OUABAIN],1.057
17,CCCCC(=O)N(Cc1ccc(-c2ccccc2-c2nnn[nH]2)cc1)[C@H](C(=O)O)C(C)C,1.813
18,Nc1ccn([C@H]2CC[C@@H](CO)O2)c(=O)n1 [ZALCITABINE],1.978
19,CCOC(=O)[C@H](CCc1ccccc1)N[C@H]1CCc2ccccc2N(CC(=O)O)C1=O [BENAZEPRIL],1.672
20,NS(=O)(=O)c1cc2c(cc1Cl)NCNS2(=O)=O [HYDROCHLOROTHIAZIDE],1.875
21,NC(CO)C(=O)NNCc1ccc(O)c(O)c1O (stereo not given) [BENSERAZIDE],1.903
22,CCOC(=O)C(C)(C)Oc1ccc(Cl)cc1 [CLOFIBRATE],1.987
23,O=c1[nH]c(=O)n([C@H]2C[C@H](O)[C@@H](CO)O2)cc1/C=C/Br [BRIVUDINE],1.58
24,NCC[C@H](O)C(=O)N[C@@H]1C[C@H](N)[C@@H](O[C@H]2O[C@H](CN)CC[C@H]2N)[C@H](O)[C@H]1O[C@H]1O[C@H](CO)[C@@H](O)[C@H](N)[C@H]1O [ARBEKACIN],1
25,N[C@@H]1CON=C1O [CYCLOSERINE],1.919
26,CC(C)NCC(O)COc1ccc(CCNC(=O)NC(C)C)cc1 (stereo not given) [PAFENOLOL],1.591
27,O=P(O)(O)C(O)(Cc1cccnc1)P(=O)(O)O [RISEDRONIC ACID],1.041
